What follows are molecules tested on Intestinal motility in dogs (jejunum) (assay: Intestinal motility in dogs (inhibition of jejunal motility, balloon method)). Conditions: Canis lupus familiaris; mongrel dogs 8 to 16 kg, urethane (1.5 g/kg) and morphine (15 mg/kg) anesthesia; balloon at jejunum, 10 cm H2O; maximum change in motility amplitude; route not given; read-out: 50% inhibition dose (ED50).
Assay type: in vivo, dog (mongrel)
Procedure: Intestinal motility in dogs: Method: Mongrel dogs weighing 8 to 16 kg which were withheld from any food and water for 24 hours were anesthetized with a combination of urethane (1.5 g/kg) and morphine (15 mg/kg). A balloon was placed at the jejunum of the dog, compressed at a pressure of 10 cm. H2 O and connected to a strain gauge. Changes in the motility were principally recorded in terms of the amplitude of the movements, but the number of movements occurring were also taken into account. The maximum change in all the determinations served as the basis for calculations of the 50% inhibition dose (ED50).

First: Oc1cc2c(cc1O)C(CNc1ccc(F)cc1)NCC2 (stereo not drawn) [Compound No. 1, 1-(p-Fluoroanilinomethyl)-6,7-dihydroxy-1,2,3,4-tetrahydroisoquinoline d-camphor-10-sulfonate]
Second: Cl.Oc1cc2c(cc1O)C(CNc1ccc(Cl)cc1)NCC2 (stereo not drawn) [Compound No. 2, 1-(p-Chloroanilinomethyl)-6,7-dihydroxy-1,2,3,4-tetrahydroisoquinoline hydrochloride]
The ED50 of the first is 2-fold higher: 3 µg/kg for the first, 1.5 µg/kg for the second.

Molecule `Cl.Cl.Oc1ccc(NCC2NCCc3cc(O)c(O)cc32)cc1` (stereo not drawn) [Compound No. 3, 1-(p-Hydroxyanilinomethyl)-6,7-dihydroxy-1,2,3,4-tetrahydroisoquinoline dihydrochloride] has an ED50 of 4 µg/kg.

From patent US4220647A, “1,2,3,4-Tetrahydroisoquinolines and the preparation thereof” (Fujisawa Pharmaceutical Co., Ltd., priority 1974, dated 1980)
